# Molecular target: ATP-dependent translocase ABCB1 (Homo sapiens, UniProt P08183)
# Sequence (P08183 whole entry): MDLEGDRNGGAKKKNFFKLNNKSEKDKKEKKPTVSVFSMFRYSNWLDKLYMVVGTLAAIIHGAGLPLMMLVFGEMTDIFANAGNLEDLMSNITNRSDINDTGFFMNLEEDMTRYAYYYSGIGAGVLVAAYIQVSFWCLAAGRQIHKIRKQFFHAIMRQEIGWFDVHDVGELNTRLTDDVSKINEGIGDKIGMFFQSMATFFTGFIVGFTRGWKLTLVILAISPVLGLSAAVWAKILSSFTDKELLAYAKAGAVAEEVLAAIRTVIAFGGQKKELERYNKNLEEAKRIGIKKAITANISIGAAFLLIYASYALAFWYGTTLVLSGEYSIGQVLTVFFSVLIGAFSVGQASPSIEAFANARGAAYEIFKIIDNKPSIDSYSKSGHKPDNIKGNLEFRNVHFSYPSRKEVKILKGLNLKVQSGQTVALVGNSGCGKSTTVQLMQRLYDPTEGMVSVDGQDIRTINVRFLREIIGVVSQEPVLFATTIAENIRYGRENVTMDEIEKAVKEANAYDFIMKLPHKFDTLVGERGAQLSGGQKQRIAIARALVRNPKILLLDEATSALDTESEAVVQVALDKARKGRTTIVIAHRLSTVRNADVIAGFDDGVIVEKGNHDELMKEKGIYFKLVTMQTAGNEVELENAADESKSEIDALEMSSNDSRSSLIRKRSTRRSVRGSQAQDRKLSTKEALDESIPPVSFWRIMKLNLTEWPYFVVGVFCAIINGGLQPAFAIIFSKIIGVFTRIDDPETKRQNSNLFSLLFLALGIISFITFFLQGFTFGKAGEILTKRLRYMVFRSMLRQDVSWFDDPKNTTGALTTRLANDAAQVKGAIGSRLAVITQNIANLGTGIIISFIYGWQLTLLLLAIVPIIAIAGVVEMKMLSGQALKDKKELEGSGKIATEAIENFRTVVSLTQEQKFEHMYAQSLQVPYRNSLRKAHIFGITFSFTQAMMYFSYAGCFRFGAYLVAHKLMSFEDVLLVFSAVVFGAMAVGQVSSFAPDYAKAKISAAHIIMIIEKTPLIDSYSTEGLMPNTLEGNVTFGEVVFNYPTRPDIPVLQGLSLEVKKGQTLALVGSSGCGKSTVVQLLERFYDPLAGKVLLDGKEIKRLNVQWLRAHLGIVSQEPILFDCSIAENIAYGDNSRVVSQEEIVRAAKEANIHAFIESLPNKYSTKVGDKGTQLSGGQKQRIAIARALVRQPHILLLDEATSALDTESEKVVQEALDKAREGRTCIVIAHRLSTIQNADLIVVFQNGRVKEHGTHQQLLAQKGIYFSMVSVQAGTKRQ
row,SMILES,EC50 [µM]
1,O=C(CCc1ccccc1)c1ccccc1OC[C@H](O)CN1CCC(Cc2ccccc2)CC1,0.257
2,O[C@H](COc1ccccc1[C@@H](O)CCc1ccccc1)CN1CCCCC1,1.7
3,O[C@@H](COc1ccccc1[C@@H](O)CCc1ccccc1)CN1CCCCC1,0.871
4,O[C@H](COc1ccccc1[C@H](O)CCc1ccccc1)CN1CCCCC1,1.51
5,O[C@@H](COc1ccccc1[C@H](O)CCc1ccccc1)CN1CCCCC1,0.851
6,OC(CN1CCCCC1)C1Oc2ccccc2C1CCc1ccccc1 (stereo not given),0.646
7,CC(C)[C@@H](CCl)N(C)[C@@H]1C2C=C(C#N)C=CC2OC(C)(C)[C@H]1O (stereo not given in full),2.24
8,O=C(CCc1cccc2ccccc12)c1cccc(OCC(O)CN2CCN(c3ccc(F)cc3)CC2)c1 (stereo not given),0.158
9,Cc1ccccc1N1CCN(CC(O)COc2cccc(C(=O)CCc3cccc4ccccc34)c2)CC1 (stereo not given),0.0708
10,CNC1c2cc(C#N)ccc2OC(C)(C)C1O (stereo not given),776
11,CC1(C)Oc2ccc(C#N)cc2C(NCc2ccccc2)C1O (stereo not given),75.9
12,CN[C@@H]1c2cc(C#N)ccc2OC(C)(C)[C@H]1O,1700
13,CC1(C)Oc2ccc(C#N)cc2[C@@H](NCc2ccccc2)[C@@H]1O,58.9
14,CC(C)[C@@H](N[C@H]1c2ccccc2OC(C)(C)[C@@H]1O)C(=O)OC(C)(C)C,1.35
15,CC(C)[C@@H](N[C@@H]1c2cc(C#N)ccc2OC(C)(C)[C@H]1O)C(=O)OC(C)(C)C,4.68
16,CC(C)[C@@H](C(=O)OC(C)(C)C)N(C)[C@@H]1c2cc(C#N)ccc2OC(C)(C)[C@H]1O,0.955
17,CC(C)[C@@H](C(=O)OC(C)(C)C)N(C)[C@H]1c2cc(C#N)ccc2OC(C)(C)[C@@H]1O,1.35
18,CC(C)[C@H](C(=O)OC(C)(C)C)N(C)[C@@H]1c2cc(C#N)ccc2OC(C)(C)[C@H]1O,1
19,CC(NC1c2cc(C#N)ccc2OC(C)(C)C1O)C(=O)OC(C)(C)C (stereo not given),29.5
20,C[C@H](N[C@H]1c2cc(C#N)ccc2OC(C)(C)[C@@H]1O)C(=O)OC(C)(C)C,14.5
21,C[C@@H](C(=O)OC(C)(C)C)N(C)[C@H]1c2cc(C#N)ccc2OC(C)(C)[C@@H]1O,3.72
22,C[C@@H](C(=O)OC(C)(C)C)N(C)[C@@H]1c2cc(C#N)ccc2OC(C)(C)[C@H]1O,3.98
23,CC(C)[C@@H]1N[C@@H]2c3cc(C#N)ccc3OC(C)(C)[C@H]2OC1=O,15.5
24,CC(C)[C@@H]1N[C@H]2c3cc(C#N)ccc3OC(C)(C)[C@@H]2OC1=O,58.9
25,CC(C)[C@H]1N[C@H]2c3cc(C#N)ccc3OC(C)(C)[C@@H]2OC1=O,9.55

row,SMILES,EC50 [µM]
1,C[C@@H]1N[C@H]2c3cc(C#N)ccc3OC(C)(C)[C@@H]2OC1=O,77.6
2,C[C@H]1C(=O)O[C@@H]2[C@H](c3cc(C#N)ccc3OC2(C)C)N1C,28.8
3,C[C@@H]1N[C@@H]2c3cc(C#N)ccc3OC(C)(C)[C@H]2OC1=O,1230
4,C[C@H]1C(=O)O[C@H]2[C@@H](c3cc(C#N)ccc3OC2(C)C)N1C,47.9
5,CC(C)[C@H]1C(=O)O[C@H]2[C@@H](c3cc(C#N)ccc3OC2(C)C)N1C,47.9
6,CC(C)[C@@H]1C(=O)O[C@H]2[C@@H](c3cc(C#N)ccc3OC2(C)C)N1C,79.4
7,CC(C)[C@@H]1C(=O)O[C@@H]2[C@H](c3cc(C#N)ccc3OC2(C)C)N1C,27.5
8,CC(C)[C@H]1C(=O)O[C@@H]2[C@H](c3cc(C#N)ccc3OC2(C)C)N1C,16.6
9,CC(C)(C)OC(=O)C(Cc1ccccc1)N[C@H]1c2cc(C#N)ccc2OC(C)(C)[C@@H]1O (stereo not given in full),0.776
10,CC(C)(C)OC(=O)C(Cc1ccccc1)N[C@@H]1c2cc(C#N)ccc2OC(C)(C)[C@H]1O (stereo not given in full),0.55
11,CC1(C)Oc2ccc(C#N)cc2[C@@H]2NC(Cc3ccccc3)C(=O)O[C@H]21 (stereo not given in full),257
12,CC1(C)Oc2ccc(C#N)cc2[C@H]2N[C@@H](Cc3ccccc3)C(=O)O[C@@H]21,2.69
13,CC(C)[C@@H](CO)N[C@H]1c2cc(C#N)ccc2OC(C)(C)[C@@H]1O,102
14,CC(C)[C@@H](CO)N[C@@H]1c2cc(C#N)ccc2OC(C)(C)[C@H]1O,53.7
15,CC(C)[C@@H](CO)N(C)[C@@H]1c2cc(C#N)ccc2OC(C)(C)[C@H]1O,5.5
16,CC(C)C(CO)N(C)[C@H]1c2cc(C#N)ccc2OC(C)(C)[C@@H]1O (stereo not given in full),6.92
17,CC(C)[C@@H](CCl)N(C)[C@@H]1c2cc(C#N)ccc2OC(C)(C)[C@H]1O,35.5
18,CC(C)[C@@H](CCl)N(C)[C@H]1c2cc(C#N)ccc2OC(C)(C)[C@@H]1O,44.7
19,CC(C)[C@H](N[C@H]1c2cc(C#N)ccc2OC(C)(C)[C@@H]1O)C(=O)O,2.69
20,CC(C)[C@H](N[C@@H]1c2cc(C#N)ccc2OC(C)(C)[C@H]1O)C(=O)O,4.79
21,C[C@H](N[C@@H]1c2cc(C#N)ccc2OC(C)(C)[C@H]1O)C(=O)OC(C)(C)C,45.7
22,CCN(CC)C[C@@H](O)COc1ccccc1C(=O)CCc1ccccc1,0.912
23,O=C(CCc1ccccc1)c1ccccc1OC[C@H](O)CN1CCCCC1,0.603
24,CC(C)N(C[C@@H](O)COc1ccccc1C(=O)CCc1ccccc1)C(C)C,0.38
25,CCC(=O)c1ccccc1OC[C@H](O)CN1CCCCC1,14.5

row,SMILES,EC50 [µM]
1,CC(=O)c1ccccc1OC[C@H](O)CN1CCCCC1,31.6
2,O=C(CCc1ccccc1)c1ccccc1OC[C@H](O)CN1CCN(c2ccccc2)CC1,0.617
3,COc1ccccc1N1CCN(C[C@@H](O)COc2ccccc2C(=O)CCc2ccccc2)CC1,0.229
4,COc1cccc(N2CCN(C[C@@H](O)COc3ccccc3C(=O)CCc3ccccc3)CC2)c1,0.676
5,COc1ccc(N2CCN(C[C@@H](O)COc3ccccc3C(=O)CCc3ccccc3)CC2)cc1,0.257
6,Cc1ccccc1N1CCN(C[C@@H](O)COc2ccccc2C(=O)CCc2ccccc2)CC1,0.0269
7,O=C(CCc1ccccc1)c1ccccc1OC[C@H](O)CN1CCN(Cc2ccccc2)CC1,0.661
8,O=C(CCc1ccccc1)c1ccccc1OC[C@H](O)CN1CCN(c2ccc(F)cc2)CC1,0.0708
9,CCC(=O)c1ccccc1OC[C@H](O)CN1CCOCC1,209
10,CN(C)C[C@@H](O)COc1ccccc1C(=O)CCc1ccccc1,2.45
11,CC(=O)c1ccccc1OC[C@H](O)CN1CCOCC1,67.6
12,CCCN(C)C[C@@H](O)COc1ccccc1C(=O)CCc1ccccc1,0.417
13,CCN(CC)C[C@@H](O)COc1ccccc1C(=O)c1ccccc1,2.34
14,O=C(/C=C/c1ccccc1)c1ccccc1OC[C@H](O)CN1CCCCC1,0.316
15,O=C(CCc1ccccc1)c1ccccc1OC[C@H](O)CN1CCOCC1,3.63
16,O=C(CCc1ccccc1)c1ccccc1OC[C@H](O)CN1CCC(O)(c2ccccc2)CC1,0.0575
17,O=C(CCc1ccccc1)c1ccc(OC[C@H](O)CN2CCCCC2)cc1,0.977
18,CO[C@H](CCc1ccccc1)c1ccccc1OC[C@H](O)CN1CCCCC1,0.174
19,CCCNC[C@@H](O)c1oc2ccccc2c1CC,11.5
20,COc1ccccc1N1CCN(C[C@@H](O)c2oc3ccccc3c2CCc2ccccc2)CC1,0.178
21,CCCNC[C@@H](O)COc1ccc(O)cc1C(=O)CCc1ccccc1,3.02
22,O=C(CCc1ccccc1)c1ccc(OC[C@H](O)CN2CCN(c3ccc(F)cc3)CC2)cc1,2.51
23,O=C(CCc1ccccc1)c1cccc(OC[C@H](O)CN2CCCCC2)c1,0.427
24,O=C(CCc1ccccc1)c1ccc(OC[C@H](O)CN2CCOCC2)cc1,6.92
25,O[C@@H](COc1ccccc1[C@H](O)CCc1ccccc1)CN1CCN(c2ccc(F)cc2)CC1,0.676

row,SMILES,EC50 [µM]
1,CO[C@H](CCc1ccccc1)c1ccccc1OC[C@H](O)CN1CCN(c2ccc(F)cc2)CC1,0.224
2,O=C(CCc1ccccc1)c1cccc(OC[C@H](O)CN2CCN(c3ccc(F)cc3)CC2)c1,1.12
3,CC(C)N(C[C@@H](O)COc1ccc(C(=O)CCc2ccccc2)cc1)C(C)C,0.912
4,CC(C)N(C[C@@H](O)COc1ccccc1[C@H](O)CCc1ccccc1)C(C)C,1.74
5,CO[C@H](CCc1ccccc1)c1ccccc1OC[C@H](O)CN(C(C)C)C(C)C,0.661
6,O=C(CCc1cccc2ccccc12)c1ccccc1OC[C@H](O)CN1CCCCC1,0.174
7,O=C(CCc1ccccc1)c1ccccc1OC[C@H](O)CNCC(c1ccccc1)c1ccccc1,0.794
8,O=C(CCc1ccccc1)c1ccccc1OC[C@H](O)CNC(c1ccccc1)c1ccccc1,10.5
9,O=C(CCc1cccc2ccccc12)c1ccccc1OC[C@H](O)CNCCC(c1ccccc1)c1ccccc1,0.724
10,CO[C@H](CCc1ccccc1)c1ccccc1OC[C@H](O)CNCCC(c1ccccc1)c1ccccc1,0.759
11,O[C@@H](COc1ccccc1[C@H](O)CCc1ccccc1)CN1CCOCC1,9.55
12,CO[C@H](CCc1ccccc1)c1ccccc1OC[C@H](O)CN1CCOCC1,1.82
13,CCCNC[C@@H](O)COc1ccc(OCc2ccccc2)cc1C(=O)CCc1ccccc1,0.11
14,O=C(CCc1ccccc1)c1cc(OCc2ccccc2)ccc1OC[C@H](O)CN1CCCCC1,0.174
15,O=C(CCc1ccccc1)c1cc(O)ccc1OC[C@H](O)CN1CCCCC1,1.74
16,O=C(CCc1ccccc1)c1ccccc1OC[C@H](O)CNCCC(c1ccccc1)c1ccccc1,0.724
17,O=C(CCc1ccccc1)c1ccccc1OC[C@H](O)CNc1ccccc1,6.46
18,O=C(CCc1ccccc1)c1ccccc1OC[C@H](O)CNC1CCCCC1,0.339
19,CC(C)N(C[C@@H](O)COc1ccc(O)cc1C(=O)CCc1ccccc1)C(C)C,1.05
20,CC(C)N(C[C@@H](O)COc1ccc(OCc2ccccc2)cc1C(=O)CCc1ccccc1)C(C)C,0.0813
21,O=C(CCc1ccccc1)c1cc(OCc2ccccc2)ccc1OC[C@H](O)CN1CCN(Cc2ccccc2)CC1,0.115
22,O=C(CCc1ccccc1)c1cc(O)ccc1OC[C@H](O)CN1CCN(Cc2ccccc2)CC1,0.525
23,CC(C)O[C@H](CCc1ccccc1)c1ccccc1OC[C@H](O)CN1CCCCC1,0.457
24,CN[C@H]1c2cc(C#N)ccc2OC(C)(C)[C@@H]1O,309
25,CC1(C)Oc2ccc(C#N)cc2[C@H](NCc2ccccc2)[C@H]1O,35.5

# Reference: ChEMBL document CHEMBL2449286, “Structure-activity data for a series of P-glycoprotein inhibitors (Supplementary Data to CHEMBL1142990)”
